Test results: the NIST ThermoML archive (doi:10.1021/je0496140)

Tests used:
[1] = xn = mol fraction of the nth substance listed; conditions: 101.33 kPa, Liquid
[2] = 101.33 kPa, Liquid

CCCCCl [1-chlorobutane] + CC(C)CO
[1]
Conditions	mass density [kg/m3]	viscosity [mPa·s]
288.15 K, x2 = 0.0369	888.52	–
288.15 K, x2 = 0.0769	885.16	–
288.15 K, x2 = 0.1003	–	0.511
288.15 K, x2 = 0.1526	878.94	–
288.15 K, x2 = 0.1993	–	0.568
288.15 K, x2 = 0.2287	872.74	–
288.15 K, x2 = 0.2853	868.15	–
288.15 K, x2 = 0.2979	–	0.654
288.15 K, x2 = 0.3791	860.52	–
288.15 K, x2 = 0.3954	–	0.784
288.15 K, x2 = 0.4421	855.33	–
288.15 K, x2 = 0.496	–	0.948
288.15 K, x2 = 0.5564	845.76	–
288.15 K, x2 = 0.5739	844.3	–
288.15 K, x2 = 0.5936	–	1.198
288.15 K, x2 = 0.625	839.91	–
288.15 K, x2 = 0.6843	834.73	–
288.15 K, x2 = 0.6894	–	1.57
288.15 K, x2 = 0.7309	830.64	–
288.15 K, x2 = 0.7517	828.8	–
288.15 K, x2 = 0.7555	828.45	–
288.15 K, x2 = 0.7567	828.35	–
288.15 K, x2 = 0.7923	–	2.196
288.15 K, x2 = 0.849	819.9	–
288.15 K, x2 = 0.8912	–	3.098
288.15 K, x2 = 0.9196	813.2	–
288.15 K, x2 = 0.9806	807.26	–
298.15 K, x2 = 0.1003	–	0.454
298.15 K, x2 = 0.1993	–	0.499
298.15 K, x2 = 0.2979	–	0.567
298.15 K, x2 = 0.3954	–	0.663
298.15 K, x2 = 0.496	–	0.787
298.15 K, x2 = 0.5936	–	0.97
298.15 K, x2 = 0.6894	–	1.23
298.15 K, x2 = 0.7923	–	1.669
298.15 K, x2 = 0.8912	–	2.284
308.15 K, x2 = 0.1003	–	0.408
308.15 K, x2 = 0.1006	861.12	–
308.15 K, x2 = 0.1959	853.68	–
308.15 K, x2 = 0.1993	–	0.445
308.15 K, x2 = 0.277	847.47	–
308.15 K, x2 = 0.2979	–	0.497
308.15 K, x2 = 0.3894	838.94	–
308.15 K, x2 = 0.3954	–	0.574
308.15 K, x2 = 0.4895	831.33	–
308.15 K, x2 = 0.496	–	0.663
308.15 K, x2 = 0.5863	823.9	–
308.15 K, x2 = 0.5936	–	0.801
308.15 K, x2 = 0.6894	–	0.986
308.15 K, x2 = 0.6914	815.7	–
308.15 K, x2 = 0.7923	–	1.295
308.15 K, x2 = 0.7941	807.44	–
308.15 K, x2 = 0.8912	–	1.724
308.15 K, x2 = 0.8989	798.78	–
318.15 K, x2 = 0.0905	850.62	–
318.15 K, x2 = 0.1003	–	0.369
318.15 K, x2 = 0.1869	843.28	–
318.15 K, x2 = 0.1993	–	0.397
318.15 K, x2 = 0.2712	837.05	–
318.15 K, x2 = 0.2979	–	0.44
318.15 K, x2 = 0.3772	829.29	–
318.15 K, x2 = 0.3954	–	0.498
318.15 K, x2 = 0.4806	821.73	–
318.15 K, x2 = 0.496	–	0.567
318.15 K, x2 = 0.5812	814.29	–
318.15 K, x2 = 0.5936	–	0.682
318.15 K, x2 = 0.6819	806.85	–
318.15 K, x2 = 0.6894	–	0.808
318.15 K, x2 = 0.7816	799.34	–
318.15 K, x2 = 0.7923	–	1.025
318.15 K, x2 = 0.8896	791.03	–
318.15 K, x2 = 0.8912	–	1.33

CC(C)CO [2-methyl-1-propanol]
[2]
Conditions	mass density [kg/m3]	viscosity [mPa·s]
288.15 K	805.47	4.805
298.15 K	797.37	3.435
308.15 K	790.1	2.508
318.15 K	781.99	1.87

CCCCCl [1-chlorobutane]
[2]
Conditions	mass density [kg/m3]	viscosity [mPa·s]
288.15 K	891.87	0.477
298.15 K	880.18	0.429
303.15 K	875.19	0.409
308.15 K	869.64	0.39
313.15 K	863.94	0.372
318.15 K	858.31	0.354

CCCCCl [1-chlorobutane] + CCCCO
[1]
Conditions	mass density [kg/m3]	viscosity [mPa·s]
288.15 K, x2 = 0.062	886.96	–
288.15 K, x2 = 0.0949	–	0.509
288.15 K, x2 = 0.1027	883.98	–
288.15 K, x2 = 0.1383	881.38	–
288.15 K, x2 = 0.1964	–	0.57
288.15 K, x2 = 0.2032	876.67	–
288.15 K, x2 = 0.2597	872.57	–
288.15 K, x2 = 0.2859	870.67	–
288.15 K, x2 = 0.2961	–	0.655
288.15 K, x2 = 0.3764	864.06	–
288.15 K, x2 = 0.3949	–	0.774
288.15 K, x2 = 0.3967	862.58	–
288.15 K, x2 = 0.4541	858.3	–
288.15 K, x2 = 0.4822	856.17	–
288.15 K, x2 = 0.4941	–	0.94
288.15 K, x2 = 0.5076	854.25	–
288.15 K, x2 = 0.5466	851.25	–
288.15 K, x2 = 0.5818	848.53	–
288.15 K, x2 = 0.5915	–	1.175
288.15 K, x2 = 0.6332	844.49	–
288.15 K, x2 = 0.6747	841.19	–
288.15 K, x2 = 0.6954	–	1.503
288.15 K, x2 = 0.7342	836.4	–
288.15 K, x2 = 0.7698	833.49	–
288.15 K, x2 = 0.794	–	1.934
288.15 K, x2 = 0.8509	826.62	–
288.15 K, x2 = 0.892	–	2.529
288.15 K, x2 = 0.9022	822.13	–
288.15 K, x2 = 0.9582	817.04	–
298.15 K, x2 = 0.0949	–	0.452
298.15 K, x2 = 0.1964	–	0.504
298.15 K, x2 = 0.2961	–	0.57
298.15 K, x2 = 0.3949	–	0.661
298.15 K, x2 = 0.4941	–	0.788
298.15 K, x2 = 0.5915	–	0.955
298.15 K, x2 = 0.6954	–	1.204
298.15 K, x2 = 0.794	–	1.525
298.15 K, x2 = 0.892	–	1.955
308.15 K, x2 = 0.0949	–	0.407
308.15 K, x2 = 0.1056	861.88	–
308.15 K, x2 = 0.1964	–	0.448
308.15 K, x2 = 0.1979	855.62	–
308.15 K, x2 = 0.2842	849.82	–
308.15 K, x2 = 0.2961	–	0.501
308.15 K, x2 = 0.3908	842.67	–
308.15 K, x2 = 0.3949	–	0.576
308.15 K, x2 = 0.4941	–	0.67
308.15 K, x2 = 0.4964	835.5	–
308.15 K, x2 = 0.5913	828.95	–
308.15 K, x2 = 0.5915	–	0.797
308.15 K, x2 = 0.6908	821.85	–
308.15 K, x2 = 0.6954	–	0.984
308.15 K, x2 = 0.7917	814.48	–
308.15 K, x2 = 0.794	–	1.226
308.15 K, x2 = 0.892	–	1.547
308.15 K, x2 = 0.9003	806.19	–
318.15 K, x2 = 0.0612	853.78	–
318.15 K, x2 = 0.0913	851.66	–
318.15 K, x2 = 0.0949	–	0.367
318.15 K, x2 = 0.1849	845.48	–
318.15 K, x2 = 0.1964	–	0.401
318.15 K, x2 = 0.2759	839.66	–
318.15 K, x2 = 0.2961	–	0.444
318.15 K, x2 = 0.3836	832.82	–
318.15 K, x2 = 0.3949	–	0.503
318.15 K, x2 = 0.4858	826.26	–
318.15 K, x2 = 0.4941	–	0.577
318.15 K, x2 = 0.5859	819.71	–
318.15 K, x2 = 0.5915	–	0.674
318.15 K, x2 = 0.6868	812.99	–
318.15 K, x2 = 0.6954	–	0.816
318.15 K, x2 = 0.7868	806.09	–
318.15 K, x2 = 0.794	–	0.993
318.15 K, x2 = 0.8906	798.56	–
318.15 K, x2 = 0.892	–	1.238
